The values below come from patent US20250145665A1, “MACROCYCLIC PEPTIDES USEFUL AS MODULATORS OF TNF ALPHA” (Bristol-Myers Squibb Company, priority 2023, published 2025).

SMILES strings stand for the structures. Starred links: 1 amine or outer side, 2 acyl side, 3 side chain; linkers in the order of their positions; H or OH if unused. Positions of bridges follow the written chain, without caps; N, C: chain ends. Non-standard residues stand in square brackets, D forms with d. Residues, ends and D or L forms follow the SMILES beside them. *: point of attachment. Bip(4'-NH) = O=C([C@H](Cc1ccc(-c2ccc(N[*:3])cc2)cc1)N[*:1])[*:2]; Bip(4'-CONHMe) = CNC(=O)c1ccc(-c2ccc(C[C@H](N)C(=O)O)cc2)cc1; Indazole3carbonyl(1-CH2COOH) = O=C(O)Cn1nc(C(=O)*)c2ccccc21; Bip(4'-NHAc) = CC(=O)Nc1ccc(-c2ccc(C[C@H](N)C(=O)O)cc2)cc1; Indole3carbonyl(1-CH2COOH) = O=C(O)Cn1cc(C(=O)*)c2ccccc21; X29 = N=C(NCCC[C@@H](N[*:1])C(=O)[*:2])NCCc1ccc(F)c(F)c1; dArg(ω-Bn) = N=C(NCCC[C@@H](N)C(=O)O)NCc1ccccc1; Ala(morpholin-4-yl) = N[C@@H](CN1CCOCC1)C(=O)O; Phe(3-CONH2) = NC(=O)c1cccc(C[C@H](N)C(=O)O)c1; Bip = N[C@@H](Cc1ccc(-c2ccccc2)cc1)C(=O)O; 2Pal = N[C@@H](Cc1ccccn1)C(=O)O; Sar = CNCC(=O)O A value given as a limit tells only on which side of the number the result lay.

For one experiment, the target named is TNFα (Homo sapiens, UniProt P01375). In words: TNF-Induced HEK-Blue Assay. The format is cell-based.
Chain of TNFα (P01375 77-233 limits assumed): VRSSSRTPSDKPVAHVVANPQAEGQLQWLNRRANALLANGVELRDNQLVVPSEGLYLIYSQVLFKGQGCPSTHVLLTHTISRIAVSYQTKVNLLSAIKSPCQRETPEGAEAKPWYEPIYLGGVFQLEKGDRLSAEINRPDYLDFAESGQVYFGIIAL
Conditions: not given
Turning to `CNC(=O)c1ccc(-c2ccc(C[C@@H]3NC(=O)[C@H](CN4CCOCC4)NC(=O)CSC[C@@H](C(=O)NCC(N)=O)NC(=O)[C@H](CC(C)C)NC(=O)[C@H](CCCNC(=N)N)NC(=O)[C@H](C(C)C)NC(=O)[C@@H]4CCCN4C(=O)[C@H](C(C)C)NC(=O)[C@@H](CCCNC(=N)NCCc4ccc(F)c(F)c4)NC(=O)[C@H](CC(=O)O)NC(=O)[C@@H]4CCCN4C(=O)CN(C)C(=O)[C@H](Cc4ccc(-c5ccc(NC(=O)c6nn(CC(=O)O)c7ccccc67)cc5)cc4)NC3=O)cc2)cc1` [Example 424] ({CH2CO}-[Ala(morpholin-4-yl)][Bip(4'-CONHMe)][Bip(4'-NH)](Indazole3carbonyl(1-CH2COOH))[Sar]PD[X29]VPVRLCG-NH2; thioether N-13), the IC50 (as a rule, the midpoint of a concentration-inhibition curve) lay in the range of 50 to 200 nM.

For `CC(C)C[C@@H]1NC(=O)[C@H](Cc2ccc(O)cc2)NC(=O)[C@H](C(C)C)NC(=O)[C@@H]2CCCN2C(=O)[C@H](C(C)C)NC(=O)[C@@H](CCCNC(=N)NCc2ccccc2)NC(=O)[C@H](CC(=O)O)NC(=O)[C@@H]2CCCN2C(=O)CN(C)C(=O)[C@H](Cc2ccc(-c3ccc(NC(=O)c4cn(CC(=O)O)c5ccccc45)cc3)cc2)NC(=O)[C@H](Cc2ccc(-c3ccccc3)cc2)NC(=O)[C@H](CN2CCOCC2)NC(=O)CSC[C@@H](C(=O)NCC(N)=O)NC1=O` [Example 531] ({CH2CO}-[Ala(morpholin-4-yl)][Bip][Bip(4'-NH)](Indole3carbonyl(1-CH2COOH))[Sar]PD[dArg(ω-Bn)]VPVYLCG-NH2; thioether N-13), the IC50 is less than 50 nM.

Staying with this experiment, now noted: HEK-Blue-CD40L cells, NF-kB-driven secreted alkaline phosphatase reporter; TNFα 0.5 ng/ml; 18 h; read-out: TNF induced HEK-Blue assay IC50 value.
Take `CC(=O)Nc1ccc(-c2ccc(C[C@@H]3NC(=O)[C@H](Cc4ccc(-c5ccccc5)cc4)NC(=O)[C@H](CN4CCOCC4)NC(=O)CSC[C@@H](C(=O)NCC(N)=O)NC(=O)[C@H](CC(C)C)NC(=O)[C@H](CCCNC(=N)N)NC(=O)[C@H](C(C)C)NC(=O)[C@@H]4CCCN4C(=O)[C@H](C(C)C)NC(=O)[C@@H](CCCNC(=N)N)NC(=O)[C@H](CC(=O)O)NC(=O)[C@H](Cc4ccccn4)NC(=O)CN(C)C3=O)cc2)cc1` [Example 203] ({CH2CO}-[Ala(morpholin-4-yl)][Bip][Bip(4'-NHAc)][Sar][2Pal]D[dR]VPVRLCG-NH2; thioether N-13): the IC50 is less than 50 nM.

On to `CC(=O)Nc1ccc(-c2ccc(C[C@@H]3NC(=O)[C@H](Cc4ccc(-c5ccccc5)cc4)NC(=O)[C@H](CN4CCOCC4)NC(=O)CSC[C@@H](C(=O)NCC(N)=O)NC(=O)[C@H](CC(C)C)NC(=O)[C@H](Cc4cccc(C(N)=O)c4)NC(=O)[C@H](C(C)C)NC(=O)[C@@H]4CCCN4C(=O)[C@H](C(C)C)NC(=O)[C@@H](CCCNC(=N)N)NC(=O)[C@H](CC(=O)O)NC(=O)[C@H](Cc4ccc(O)cc4)NC(=O)CN(C)C3=O)cc2)cc1` [Example 456] ({CH2CO}-[Ala(morpholin-4-yl)][Bip][Bip(4'-NHAc)][Sar]YD[dR]VPV[Phe(3-CONH2)]LCG-NH2; thioether N-13), for which the IC50 is 50 to 200 nM.

In the case of `CC(C)C[C@@H]1NC(=O)[C@H](CCCNC(=N)N)NC(=O)[C@H](C(C)C)NC(=O)[C@@H]2CCCN2C(=O)[C@H](C(C)C)NC(=O)[C@H](CCCNC(=N)N)NC(=O)[C@H](CC(=O)O)NC(=O)[C@@H]2CCCN2C(=O)CN(C)C(=O)[C@H](Cc2ccc(-c3ccccc3)cc2)NC(=O)[C@H](Cc2ccc(-c3ccccc3)cc2)NC(=O)[C@H](Cc2ccc(O)cc2)NC(=O)CSC[C@@H](C(=O)NCC(N)=O)NC1=O` [Example 4] ({CH2CO}-Y[Bip][Bip][Sar]PDRVPVRLCG-NH2; thioether N-13), the IC50 is 200 to 2000 nM.

For `CC(C)C[C@@H]1NC(=O)[C@H](CCCNC(=N)N)NC(=O)[C@H](C(C)C)NC(=O)[C@@H]2CCCN2C(=O)[C@H](CC(N)=O)NC(=O)[C@H](CCCNC(=N)N)NC(=O)[C@H](CC(=O)O)NC(=O)[C@@H]2CCCN2C(=O)CN(C)C(=O)[C@H](Cc2ccc(-c3ccccc3)cc2)NC(=O)[C@H](Cc2ccc(-c3ccccc3)cc2)NC(=O)[C@H](CN2CCOCC2)NC(=O)CSC[C@@H](C(=O)NCC(N)=O)NC1=O` [Example 67] ({CH2CO}-[Ala(morpholin-4-yl)][Bip][Bip][Sar]PDRNPVRLCG-NH2; thioether N-13), the IC50 is 200 to 2000 nM.
